Reference: patent US7709471B2, “Compounds” (AstraZeneca AB, priority 2006, dated 2010)

test system: human colon tumour cell line HT29; assay: Cellular Assay (phosphohistone H3 Ser10 mitotic marker, HT29); type: cell-based; conditions: HT-29, 24 h, HT29 cells, read-out: IC50 (cellular assay, phosphohistone H3)
Description: Chromosome condensation in mitosis is accompanied by phosphorylation of histone H3 on serine 10.
After 24 hours, cells were fixed in 3.7% (v/v) formaldehyde then permeabilised and blocked for 10 minutes in 100 μl 0.5% (v/v) Triton X-100, 1% (w/v) bovine serum albumin (BSA) in phosphate buffered saline (PBS). […] The raw assay data were analysed by non-linear regression analysis and used to determine an IC50 value for each compound.

SMILES	IC50 [nM]
COc1cc(C(=O)NCCN2CCCC2)ccc1Nc1ncc2c(n1)N(C(C)C)CC(C)(C)C(=O)N2C [Example 301, 3-methoxy-N-(2-pyrrolidin-1-ylethyl)-4-[(4,4,6-trimethyl-5-oxo-2-propan-2-yl-2,6,9,11-tetrazabicyclo[5.4.0]undeca-7,9,11-trien-10-yl)amino]benzamide]	< 1000
COc1cc(C(=O)NCCN(C)C)ccc1Nc1ncc2c(n1)N(C(C)C)CC(C)(C)C(=O)N2C [Example 302, N-(2-dimethylaminoethyl)-3-methoxy-4-[(4,4,6-trimethyl-5-oxo-2-propan-2-yl-2,6,9,11-tetrazabicyclo[5.4.0]undeca-7,9,11-trien-10-yl)amino]benzamide]	< 1000
COc1cc(C(=O)NCCCN(C)C)ccc1Nc1ncc2c(n1)N(C(C)C)CC(C)(C)C(=O)N2C [Example 303, N-(3-dimethylaminopropyl)-3-methoxy-4-[(4,4,6-trimethyl-5-oxo-2-propan-2-yl-2,6,9,11-tetrazabicyclo[5.4.0]undeca-7,9,11-trien-10-yl)amino]benzamide]	< 300
CCC1(CC)CN(C(C)C)c2nc(Nc3ccc(C(=O)NC4CCN(C)CC4)cc3OC)ncc2N(C)C1=O [Example 304, 4-[(4,4-diethyl-6-methyl-5-oxo-2-propan-2-yl-2,6,9,11-tetrazabicyclo[5.4.0]undeca-7,9,11-trien-10-yl)amino]-3-methoxy-N-(1-methyl-4-piperidyl)benzamide]	< 300
CCN1CCC(NC(=O)c2ccc(Nc3ncc4c(n3)N(C(C)C)CC(CC)(CC)C(=O)N4C)c(OC)c2)CC1 [Example 305, 4-[(4,4-diethyl-6-methyl-5-oxo-2-propan-2-yl-2,6,9,11-tetrazabicyclo[5.4.0]undeca-7,9,11-trien-10-yl)amino]-N-(1-ethyl-4-piperidyl)-3-methoxy-benzamide]	< 300
CCN1CCC(NC(=O)c2cc(OC)c(Nc3ncc4c(n3)N(C(C)C)CC(CC)(CC)C(=O)N4C)cc2F)CC1 [Example 308, 4-[(4,4-diethyl-6-methyl-5-oxo-2-propan-2-yl-2,6,9,11-tetrazabicyclo[5.4.0]undeca-7,9,11-trien-10-yl)amino]-N-(1-ethyl-4-piperidyl)-2-fluoro-5-methoxy-benzamide]	< 300
CCC1(CC)CN(C(C)C)c2nc(Nc3ccc(C(=O)NCC(C)(C)CN4CCCC4)cc3OC)ncc2N(C)C1=O [Example 309, 4-[(4,4-diethyl-6-methyl-5-oxo-2-propan-2-yl-2,6,9,11-tetrazabicyclo[5.4.0]undeca-7,9,11-trien-10-yl)amino]-N-(2,2-dimethyl-3-pyrrolidin-1-yl-propyl)-3-methoxy-benzamide]	< 1000
CC(C)N1CC2(CC2)C(=O)N(C)c2cnc(Nc3cc(F)c(C(=O)N[C@@H]4CCN(C)C4)cc3Cl)nc21 [Example 310, (R)-5-chloro-2-fluoro-4-(9′-isopropyl-5′-methyl-6′-oxo-5′,6′,8′,9′-tetrahydrospiro[cyclopropane-1,7′-pyrimido[5,4-b][1,4]diazepine]-2′-ylamino)-N-(1-methylpyrrolidin-3-yl)benzamide]	< 1000
CCN1CCC(NC(=O)c2cc(Cl)c(Nc3ncc4c(n3)N(C(C)C)CC3(CC3)C(=O)N4C)cc2F)CC1 [Example 311, 5-chloro-N-(1-ethylpiperidin-4-yl)-2-fluoro-4-(9′-isopropyl-5′-methyl-6′-oxo-5′,6′,8′,9′-tetrahydrospiro[cyclopropane-1,7′-pyrimido[5,4-b][1,4]diazepine]-2′-ylamino)benzamide]	< 1000
COc1cc(C(=O)NCCN2CCCC2)ccc1Nc1ncc2c(n1)N(C(C)C)CC1(CC1)C(=O)N2C [Example 312, 4-(9′-isopropyl-5′-methyl-6′-oxo-5′,6′,8′,9′-tetrahydrospiro[cyclopropane-1,7′-pyrimido[5,4-b][1,4]diazepine]-2′-ylamino)-3-methoxy-N-(2-(pyrrolidin-1-yl)ethyl)benzamide]	< 300
COc1cc(C(=O)NCC(C)(C)CN(C)C)ccc1Nc1ncc2c(n1)N(C(C)C)CC1(CC1)C(=O)N2C [Example 313, N-(3-(dimethylamino)-2,2-dimethylpropyl)-4-(9′-isopropyl-5′-methyl-6′-oxo-5′,6′,8′,9′-tetrahydrospiro[cyclopropane-1,7′-pyrimido[5,4-b][1,4]diazepine]-2′-ylamino)-3-methoxybenzamide]	< 300
CN1CCC(NC(=O)c2cc(Cl)c(Nc3ncc4c(n3)N(C3CCCC3)CCC(=O)N4C)c(Cl)c2F)CC1 [Example 330, 3,5-dichloro-4-[(2-cyclopentyl-6-methyl-5-oxo-2,6,9,11-tetrazabicyclo[5.4.0]undeca-7,9,11-trien-10-yl)amino]-2-fluoro-N-(1-methyl-4-piperidyl)benzamide]	< 1000
COc1cc(C(=O)NCCN2CCCC2)c(F)cc1Nc1ncc2c(n1)N(C1CCCC1)CCC(=O)N2C [Example 333, 4-[(2-cyclopentyl-6-methyl-5-oxo-2,6,9,11-tetrazabicyclo[5.4.0]undeca-7,9,11-trien-10-yl)amino]-2-fluoro-5-methoxy-N-(2-pyrrolidin-1-ylethyl)benzamide]	< 300
CN1CC[C@@H](NC(=O)c2cc(F)c(Nc3ncc4c(n3)N(C3CCCC3)CCC(=O)N4C)cc2F)C1 [Example 334, 4-[(2-cyclopentyl-6-methyl-5-oxo-2,6,9,11-tetrazabicyclo[5.4.0]undeca-7,9,11-trien-10-yl)amino]-2,5-difluoro-N-[(3R)-1-methylpyrrolidin-3-yl]benzamide]	< 300
CN1C(=O)CCN(C2CCCC2)c2nc(Nc3cc(F)c(C(=O)NCCN4CCCC4)cc3F)ncc21 [Example 335, 4-[(2-cyclopentyl-6-methyl-5-oxo-2,6,9,11-tetrazabicyclo[5.4.0]undeca-7,9,11-trien-10-yl)amino]-2,5-difluoro-N-(2-pyrrolidin-1-ylethyl)benzamide]	< 300
COc1cc(C(=O)N[C@@H]2CCN(C)C2)c(Cl)cc1Nc1ncc2c(n1)N(C1CCCC1)CCC(=O)N2C [Example 336, 2-chloro-4-[(2-cyclopentyl-6-methyl-5-oxo-2,6,9,11-tetrazabicyclo[5.4.0]undeca-7,9,11-trien-10-yl)amino]-5-methoxy-N-[(3R)-1-methylpyrrolidin-3-yl]benzamide]	< 300
CCN1CCC(NC(=O)c2cc(OC)c(Nc3ncc4c(n3)N(C3CCCC3)CCC(=O)N4C)cc2Cl)CC1 [Example 337, 2-chloro-4-[(2-cyclopentyl-6-methyl-5-oxo-2,6,9,11-tetrazabicyclo[5.4.0]undeca-7,9,11-trien-10-yl)amino]-N-(1-ethyl-4-piperidyl)-5-methoxy-benzamide]	< 300
COc1cc(C(=O)NC2CCC(N(C)C)CC2)c(Cl)cc1Nc1ncc2c(n1)N(C1CCCC1)CCC(=O)N2C (stereo not shown) [Example 338, 2-chloro-4-[(2-cyclopentyl-6-methyl-5-oxo-2,6,9,11-tetrazabicyclo[5.4.0]undeca-7,9,11-trien-10-yl)amino]-N-(4-dimethylaminocyclohexyl)-5-methoxy-benzamide]	< 300
COc1cc(C(=O)NC2CCN(CC(C)C)CC2)ccc1Nc1ncc2c(n1)N(C1CCCC1)CCC(=O)N2C [Example 340, 4-[(2-cyclopentyl-6-methyl-5-oxo-2,6,9,11-tetrazabicyclo[5.4.0]undeca-7,9,11-trien-10-yl)amino]-3-methoxy-N-[1-(2-methylpropyl)-4-piperidyl]benzamide]	< 300
